{"source": "paper PMC12475274", "about": "“Harnessing indole scaffolds to identify small-molecule IRE1α inhibitors modulating XBP1 mRNA splicing” (Nature Communications, 2025)", "key": {"[1]": {"target": "T1, phosphorylated IRE1α (p-IRE1α) (Homo sapiens, UniProt O75460)", "T1 construct": "Human IRE1α kinase and RNase domain (residues 547–977) was subcloned into pLIB plasmid; His tag (with TEV cleavage site) (N, cleaved yes); made in house; host or cells: Sf9 insect cells, baculovirus (Bac-to-Bac)", "T1 sequence (O75460 547-977)": "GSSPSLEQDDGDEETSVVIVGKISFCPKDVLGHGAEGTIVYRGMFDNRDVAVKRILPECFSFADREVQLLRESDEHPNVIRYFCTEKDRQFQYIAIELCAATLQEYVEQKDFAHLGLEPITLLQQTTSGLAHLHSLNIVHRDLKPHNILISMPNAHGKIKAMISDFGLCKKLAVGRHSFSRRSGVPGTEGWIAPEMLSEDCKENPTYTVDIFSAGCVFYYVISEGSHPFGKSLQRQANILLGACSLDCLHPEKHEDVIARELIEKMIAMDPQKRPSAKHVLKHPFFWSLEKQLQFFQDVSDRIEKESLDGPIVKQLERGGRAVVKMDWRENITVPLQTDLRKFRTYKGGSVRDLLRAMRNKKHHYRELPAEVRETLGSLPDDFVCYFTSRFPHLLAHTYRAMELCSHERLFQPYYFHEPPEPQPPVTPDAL", "assay": "FRET-based IRE1α RNase activity assay, phosphorylated IRE1α", "type": "biochemical", "conditions": "for IC50: FRET assay", "how_it_was_run": "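Sf9-expressed IRE1α kinase-RNase domain (residues 547–977), fully phosphorylated fraction, 4 nM, preincubated with compound 30 min at RT, then 200 nM FAM/BHQ1 XBP1 RNA added in HEPES pH 7.5 buffer. Fluorescence (ex 485/em 535 nm) read kinetically for 1 h at RT; inhibition from linear slopes, IC50 by concentration-response fit.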"}, "[2]": {"target": "T2, IRE1α (Homo sapiens, UniProt O75460)", "T2 construct": "Human IRE1α kinase and RNase domain (residues 547–977) was subcloned into pLIB plasmid; His tag (with TEV cleavage site) (N, cleaved yes); made in house; host or cells: Sf9 insect cells, baculovirus (Bac-to-Bac)", "T2 sequence (O75460 547-977)": "as above", "assay": "Differential scanning fluorimetry (DSF), IRE1α", "type": "binding", "conditions": "for IRE1a ∆Tm: DSF, individual measurements", "protocol": "(§1) The DSF assay was performed in PBS buffer containing 2 mM DTT, in a total reaction volume of 20 µl with indicated compounds (final 1% DMSO) and the final concentration of 1 µM IRE1α protein and 5× SYPRO Orange fluorescent dye (5000× in DMSO, Sigma S5692). The melting curve was measured at a temperature range from 25 °C to 95 °C and in increments of 1 °C for 30 s using a Bio-Rad CFX96 Real-Time PCR detection system with the FRET scan mode. The melting temperature (Tm) was obtained by fitting the melting curve to Boltzmann sigmoidal in GraphPad Prism and the thermal shift (∆Tm) was calculated by using the equation: ∆Tm = Tm(compound) -Tm(DMSO)."}, "[3]": {"target": "T3, p-IRE1α (Homo sapiens, UniProt O75460)", "T3 construct": "Human IRE1α kinase and RNase domain (residues 547–977) was subcloned into pLIB plasmid; His tag (with TEV cleavage site) (N, cleaved yes); made in house; host or cells: Sf9 insect cells, baculovirus (Bac-to-Bac)", "T3 sequence (O75460 547-977)": "as above", "assay": "Differential scanning fluorimetry (DSF), p-IRE1α", "type": "binding", "conditions": "for p-IRE1a ∆Tm: DSF, individual measurements", "protocol": "as §1"}}, "note": "Several values for one entry are separate records, joined by “and”; a condition that tells them apart may be missing. Equal entries are not always repeated. Where two headings read alike, the source gives them in different places."}
{"smiles": "COc1ccc2c(c1)c(CCC(=O)O)c(C)n2C(=O)c1ccc(Cl)cc1", "note": "[IA01]", "values": [{"measurement": "inhibition at 50 µM", "setting": "[1]; FRET assay at 50 μM, mean (± SEM), read-out: p-IRE1α inhibition%", "value": 99.3, "unit": "%"}, {"measurement": "p-IRE1a Inhibiton%, individual measurements", "setting": "[1]; FRET assay at 50 μM, source data, 50 µM", "value": "102.461% and 99.7014% and 101.879% and 92.3671% and 96.3072%"}, {"measurement": "inhibition at 50 µM", "setting": "[1]; FRET assay at 50 μM, source data, read-out: p-IRE1a Inhibiton%, individual measurements", "value": 103, "unit": "%"}, {"measurement": "IC50", "setting": "[1]; RNase activity, mean (± SEM), read-out: p-IRE1α IC50", "value": 320, "unit": "nM"}, {"measurement": "IC50", "setting": "[1]; source data, unit from Fig. 3, read-out: p-IRE1a IC50, individual replicates (n1-n4)", "value": "544 nM and 136 nM and 264 nM and 325 nM"}, {"measurement": "stabilization of IRE1α in DSF", "setting": "[2]", "value": "stabilized IRE1α concentration-dependently"}, {"measurement": "IRE1a ∆Tm", "setting": "[2]; compound 25 μM", "value": "1.17 °C and 1.02 °C"}, {"measurement": "IRE1a ∆Tm", "setting": "[2]; compound 50 μM", "value": "1.57 °C and 1.89 °C"}, {"measurement": "stabilization of p-IRE1α in DSF", "setting": "[3]", "value": "concentration-dependently stabilized"}, {"measurement": "p-IRE1a ∆Tm", "setting": "[3]; compound 25 μM", "value": "0.52 °C and 0.47 °C"}, {"measurement": "p-IRE1a ∆Tm", "setting": "[3]; compound 50 μM", "value": "0.91 °C and 1.02 °C"}]}
